Results taken from patent publication US5532228A, “Side-chain homologous vitamin D derivatives, process for their production, pharmaceutical preparations containing these derivatives and their use as pharmaceutical agents” (Schering Aktiengesellschaft, priority 1990, dated 1996).
Read-outs that look alike come from different tables or passages of the source.

Columns and labels:
[1] = test system: HL 60 cells (human leukemia cells, promyelocytic cell line); assay: HL 60 differentiation induction into macrophages (NBT reduction to formazan); type: cell-based; details: for differentiation-stimulating effect compared with calcitriol: HL 60 cells, versus calcitriol; for EC50: Homo sapiens, HL-60, 96 hours incubation, NBT-TPA, formazan at 650 nm, read-out: ED50 of differentiation induction of HL 60 cells into macrophages (formazan formed)
Description: To quantify the differentiation-stimulating effect of calcitriol analogs, the test indicated below was performed:
HL 60 cells are cultivated in tissue culture medium (RPM1--10% fetal calf serum) at 37° C. in an atmosphere of 5% CO2 in air.
The test substances are-dissolved in ethanol and diluted with tissue culture medium without phenol red to the desired concentration. The dilution stages are mixed with the cell suspension in a ratio of 1:10 and 100 microliters each of this cell suspension mixed with substance is pipetted into an indentation of a 96-hole plate. As a control, a cell suspension is mixed analogously with the solvent.
After incubation for 96 hours at 37° C. in 5% CO2 in air, 100 microliters of an NBT-TPA solution (nitro blue tetrazolium (NBT), final concentration in the batch 1 mg/ml, tetradecanoyl-phorbol myristate-13-acetate (TPA), final concentration in the batch 2×10^-7 mol/l) is pipetted into each indentation of the 96-hole plate into the cell suspension.
By incubation for 2 hours at 37° C. and 5% CO2 in air, the NBT is reduced to insoluble formazan because of the intracellular oxygen radical release, stimulated by TPA, in the cells differentiated into macrophages.
To end the reaction, the indentations of the 96-hole plate are drained and the adhering cells are fixed by adding methanol and dried after fixation.
To dissolve the intracellular formazan crystals formed, 100 microliters of potassium hydroxide (2 val/l) and 100 microliters of dimethyl sulfoxide are pipetted into each indentation and are exposed to ultrasonic waves for 1 minute. The concentration of formazan is measured by spectrophotometry at 650 nm.
The concentration of formazan formed is regarded as a measurement for the differentiation induction of the HL 60 cells into macrophages. The relative effectiveness of the test substance results from the quotient of ED50 test substance/ED50 calcitriol.

[2] = test system: Keratinocytes of newborn mice; assay: antiproliferative test: 3H-thymidine incorporation in DNA of keratinocytes; type: cell-based, mouse (neonatal NMRI mice); details: mouse keratinocytes, 24 hours with test substance in serum-free medium at 32.5° C., 4 hours 3H-methylthymidine, read-out: IC50 of inhibition of 3H-thymidine incorporation in DNA
Description: Keratinocytes of newborn mice are prepared and cultivated in a modification of the method of Yuspa, S. and Harris, C.
Neonatal NMRI mice of both sexes are killed by decapitation, the skin is removed, washed in an antibiotic-antimycotic solution and, with the dermal side facing down, incubated overnight at 4° C. in dispase II solution (1.2 U/ml in tissue culture medium M199 +25 mmol/l HEPES+15% fetal calf serum (FCS)+50 U/ml of penicillin/streptomycin (P/S) (preparation medium, PM). The epidermis is removed and a single-cell suspension is produced by trypsinization. After centrifuging, the cell sediment is resuspended, the number of living, small, round cells is determined after trypan blue staining and the cells are sown in a density of 4×10^5 cells/cm^2 in Primaria 24-hole plates in tissue culture medium (M199+15% FCS+50 U/ml of P/S). […] Then, 0.4 microcuries/50 microliters of ^3 H-methylthymidine (40 Ci/mmol) is added. After 4 hours, the medium is suctioned off and the reaction is ended by adding 500 microliters of ice-cold 10% trichloroacetic acid (TCA). The cells are washed with TCA and PBS, lysed by incubation in a proteinase K-solution (10 mmol/l of tris-HCl, 10 mmol/l of EDTA, 10 mmol/l of NaCl, 0.2% triton-X 100, pH 8.0, 50 micrograms/ml of […]) and the lysate is clarified by centrifuging. In the supernatant fluid, the radioactivity is determined by scintillation photometry and, after specific staining of the DNA with diamidinophenylindole (DAPI), the DNA concentration is determined by fluorescence photometry.

SMILES: C=C1/C(=C\C=C2/CCC[C@]3(C)[C@@H]([C@H](C)C/C=C/[C@@H](O)CC4CC4)CC[C@@H]23)C[C@@H](O)C[C@@H]1O [compound D, 26,27-cyclo-24a,24b-dihomo-9,10-secocholesta-5Z,7E,10(19),23E-tetraene-1(S),3(R),24a(S)-triol]
- differentiation-stimulating effect compared with calcitriol [1]: practically do not differ
- EC50 [1]: 2.5 nM

SMILES: C=C1/C(=C\C=C2/CCC[C@]3(C)[C@@H]([C@H](C)C/C=C/C(O)CC(C)C)CC[C@@H]23)C[C@@H](O)C[C@@H]1O (single isomer, unassigned) [compound B]
- IC50 [2]: 3.2 nM

SMILES: C=C1/C(=C\C=C2/CCC[C@]3(C)[C@@H]([C@H](C)CCCC(C)(C)O)CC[C@@H]23)C[C@@H](O)C[C@@H]1O [calcitriol, lalpha,25-dihydroxycholecalciferol, reference compound]
- EC50 [1]: 1.8 nM
- IC50 ([2]; Keratinocyte): 2 nM

SMILES: C=C1/C(=C\C=C2/CCC[C@]3(C)[C@@H]([C@H](C)C/C=C/C(O)CC(C)C)CC[C@@H]23)C[C@@H](O)C[C@@H]1O (single isomer, unassigned) [compound A]
- IC50 [2]: 10 nM

SMILES: C=C1/C(=C\C=C2/CCC[C@]3(C)[C@@H]([C@H](C)C/C=C/[C@H](O)CC4CC4)CC[C@@H]23)C[C@@H](O)C[C@@H]1O [compound C, 26,27-cyclo-24a,24b-dihomo-9,10-secocholesta-5Z,7E,10(19),23E-tetraene-1(S),3(R),24a(R)-triol]
- differentiation-stimulating effect compared with calcitriol [1]: practically do not differ
- EC50 [1]: 2.2 nM
